PubChem BioAssay AID256 (DTP/NCI, 2004)
Where “and” joins values, the source holds several entries; their conditions need not be identical. Equal entries are not always repeated. Toxic doses and inconclusive results are not listed. The calls were made as follows: active = survival T/C of 150% or more; inactive = T/C below 125% in these data.

System: CD2F1 mice, L1210 leukemia ip, survival T/C
Experiment: NCI In Vivo Anticancer Drug Screen. Data for tumor model L1210 Leukemia (intraperitoneal) in CD2F1 (CDF1) mice
Conditions: endpoint: mean survival time, higher = longer survival
Summary of the method: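 Compound-dosed mice with transplantable tumor versus matched vehicle controls; endpoint ratio T/C reported.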

[1] = dose: 100.0 mg/kg/injection, schedule: Q01DX001 (ip), vehicle: saline with Tween-80
[2] = dose: 25.0 mg/kg/injection, schedule: Q01DX009 (ip), vehicle: saline with Tween-80
[3] = dose: 50.0 mg/kg/injection, schedule: Q01DX009 (ip), vehicle: saline with Tween-80
[4] = dose: 100.0 mg/kg/injection, schedule: Q01DX009 (ip), vehicle: saline with Tween-80
[5] = dose: 100.0 mg/kg/injection, schedule: Q04DX003 (ip), vehicle: saline with Tween-80
[6] = dose: 25.0 mg/kg/injection, schedule: Q04DX002 (ip), vehicle: saline with Tween-80
[7] = dose: 50.0 mg/kg/injection, schedule: Q04DX002 (ip), vehicle: saline with Tween-80
[8] = dose: 100.0 mg/kg/injection, schedule: Q04DX002 (ip), vehicle: saline with Tween-80
[9] = dose: 200.0 mg/kg/injection, schedule: Q01DX001 (ip), vehicle: saline
[10] = dose: 400.0 mg/kg/injection, schedule: Q01DX001 (ip), vehicle: saline
[11] = dose: 200.0 mg/kg/injection, schedule: Q01DX009 (ip), vehicle: saline with Tween-80
[12] = dose: 200.0 mg/kg/injection, schedule: Q04DX003 (ip), vehicle: saline with Tween-80
[13] = dose: 400.0 mg/kg/injection, schedule: Q01DX009 (ip), vehicle: saline with Tween-80
[14] = dose: 400.0 mg/kg/injection, schedule: Q04DX003 (ip), vehicle: saline with Tween-80
[15] = dose: 200.0 mg/kg/injection, schedule: Q04DX002 (ip), vehicle: saline with Tween-80
[16] = dose: 400.0 mg/kg/injection, schedule: Q04DX002 (ip), vehicle: saline with Tween-80
[17] = dose: 100.0 mg/kg/injection, schedule: Q01DX001 (ip), vehicle: saline

Measured: T/C

CC(C)(C)OC(=O)NC(CC(N)=O)C(=O)O (stereo unspecified)
inactive: dose: 100.0 mg/kg/injection, schedule: Q01DX001 (ip), vehicle: saline sonified 98 % of control | dose: 200.0 mg/kg/injection, schedule: Q01DX001 (ip), vehicle: saline sonified 93 % of control | dose: 400.0 mg/kg/injection, schedule: Q01DX001 (ip), vehicle: saline sonified 98 % of control

COC(=O)C(Br)c1ccccc1 (stereo unspecified)
inactive: [1] 108 % of control | dose: 200.0 mg/kg/injection, schedule: Q01DX001 (ip), vehicle: saline with Tween-80 91 % of control | dose: 400.0 mg/kg/injection, schedule: Q01DX001 (ip), vehicle: saline with Tween-80 97 % of control

Brc1nc(Br)c(Br)[nH]1
inactive: [2] 86 % of control | [3] 95 % of control | [4] 92 % of control | [5] 100 % of control

CC(=O)NCc1cnccn1
inactive: dose: 100.0 mg/kg/injection, schedule: Q04DX003 (ip), vehicle: saline sonified 103 % of control | dose: 200.0 mg/kg/injection, schedule: Q04DX003 (ip), vehicle: saline sonified 102 % of control | dose: 400.0 mg/kg/injection, schedule: Q04DX003 (ip), vehicle: saline sonified 102 % of control

CCOC(=O)Nc1ccc2c(c1)Cc1cc(N=Cc3ccc4c(c3)OCO4)ccc1-2
inactive: dose: 100.0 mg/kg/injection, schedule: Q01DX001 (ip), vehicle: carboxymethylcellulose (CMC) 105 % of control | dose: 200.0 mg/kg/injection, schedule: Q01DX001 (ip), vehicle: carboxymethylcellulose (CMC) 100 % of control | dose: 400.0 mg/kg/injection, schedule: Q01DX001 (ip), vehicle: carboxymethylcellulose (CMC) 97 % of control

CC(=NC(c1ccccc1)c1ccccc1)N(C)C
inactive: [6] 102 % of control | [7] 98 % of control | [8] 102 % of control

Nc1ncnc2c1ncn2CCC(CO)CO
inactive: [9] 102 % of control | [10] 107 % of control

COC(=O)CCCCCCCCO
inactive: [4] 109 % of control | [5] 97 % of control | [11] 101 % of control | [12] 95 % of control | [13] 104 % of control | [14] 90 % of control

CSc1nc(Cl)cc(/N=C/N(C)C)n1
inactive: [4] 102 % of control | [11] 98 % of control

CCOC(=O)C1C(=O)N(C)C(=O)N1C (stereo unspecified)
inactive: dose: 5.56 mg/kg/injection, schedule: Q01DX009 (ip), vehicle: water 89 % of control | dose: 8.33 mg/kg/injection, schedule: Q01DX009 (ip), vehicle: water 90 % of control | dose: 12.5 mg/kg/injection, schedule: Q01DX009 (ip), vehicle: water 121 % of control and 92 % of control | dose: 25.0 mg/kg/injection, schedule: Q01DX009 (ip), vehicle: water 95 % of control | dose: 50.0 mg/kg/injection, schedule: Q01DX009 (ip), vehicle: water 93 % of control | dose: 100.0 mg/kg/injection, schedule: Q01DX009 (ip), vehicle: water 95 % of control | dose: 200.0 mg/kg/injection, schedule: Q01DX009 (ip), vehicle: water 98 % of control

O=P(CP(c1ccccc1)c1ccccc1)(c1ccccc1)c1ccccc1
inactive: [6] 96 % of control | [7] 92 % of control | [8] 92 % of control

NC1CC[N-]CC1.NC1CC[N-]CC1.NC1CC[N-]CC1.NC1CC[N-]CC1.[Cl][Rh][Cl]
inactive: dose: 6.25 mg/kg/injection, schedule: Q04DX003 (ip), vehicle: saline with Tween-80 98 % of control | dose: 12.5 mg/kg/injection, schedule: Q04DX003 (ip), vehicle: saline with Tween-80 101 % of control | dose: 25.0 mg/kg/injection, schedule: Q04DX003 (ip), vehicle: saline with Tween-80 95 % of control

CC(=O)OCC1OC(n2ncc3c(Nc4ccccc4)ncnc32)C(OC(C)=O)C1OC(C)=O (stereo unspecified)
inactive: [2] 93 % of control | [3] 100 % of control | [4] 87 % of control | [11] 100 % of control | [13] 100 % of control

O=c1[nH]c(NCCCCc2ccccc2)c(Br)c(=O)[nH]1
inactive: [1] 91 % of control

OC(c1ccccc1)c1nc2ccccc2[nH]1 (stereo unspecified)
inactive: [4] 98 % of control | [5] 101 % of control | [11] 95 % of control | [12] 96 % of control | [13] 96 % of control | [14] 100 % of control

Oc1cc(N2CC2)c(O)cc1N1CC1
inactive: dose: 0.07 mg/kg/injection, schedule: Q01DX009 (ip), vehicle: saline 111 % of control | dose: 0.15 mg/kg/injection, schedule: Q01DX009 (ip), vehicle: saline 116 % of control

O=[N+]([O-])c1cccc(C=Nc2ccc3c(c2)C(Br)c2ccccc2-3)c1 (stereo unspecified)
inactive: [5] 97 % of control | [12] 90 % of control

O=c1[nH]c(=O)n(C2SC(CO)C(O)C2O)cc1F (stereo unspecified)
inactive: dose: 178.0 mg/kg/injection, schedule: Q01DX009 (ip), vehicle: saline with Tween-80 113 % of control | dose: 267.0 mg/kg/injection, schedule: Q01DX009 (ip), vehicle: saline with Tween-80 113 % of control | [13] 119 % of control

Nc1ncnc2c1[nH]c(=S)n2C1OC(CO)C(O)C1O (stereo unspecified)
inactive: [8] 107 % of control | [15] 103 % of control | [16] 100 % of control

CCOC/C=C\C1=CCCCC1
inactive: [3] 97 % of control | [4] 114 % of control | [11] 105 % of control

COc1cc2c(cc1OC)-c1c(cnn1C1OC(COC(C)=O)C(OC(C)=O)C(OC(C)=O)C1OC(C)=O)CC2 (stereo unspecified)
inactive: dose: 12.5 mg/kg/injection, schedule: Q01DX005 (ip), vehicle: other 103 % of control | dose: 25.0 mg/kg/injection, schedule: Q01DX005 (ip), vehicle: other 93 % of control | dose: 50.0 mg/kg/injection, schedule: Q01DX005 (ip), vehicle: other 90 % of control | dose: 100.0 mg/kg/injection, schedule: Q01DX005 (ip), vehicle: other 87 % of control

O=c1ccccn1CCc1ccccc1
inactive: dose: 12.5 mg/kg/injection, schedule: Q01DX009 (ip), vehicle: saline with Tween-80 101 % of control | [2] 98 % of control | [3] 101 % of control

CNC(=S)N(C)c1nc(C)cs1
inactive: [8] 91 % of control | [15] 95 % of control | [16] 103 % of control

CS(=O)(=O)OC(OS(C)(=O)=O)(OS(C)(=O)=O)OS(C)(=O)=O
inactive: [5] 111 % of control | [12] 105 % of control | [14] 105 % of control

CN1CCN(CCCN2C(=O)C3CC=CCC3C2=O)CC1 (stereo unspecified)
inactive: [17] 102 % of control | [9] 93 % of control

CC1OC(O)C(O)C(O)C1O (stereo unspecified)
inactive: [17] 102 % of control | [9] 100 % of control | [10] 100 % of control

N=C(N)SSC(=N)N
inactive: dose: 50.0 mg/kg/injection, schedule: Q01DX009 (ip), vehicle: saline 96 % of control | dose: 100.0 mg/kg/injection, schedule: Q01DX009 (ip), vehicle: saline 100 % of control

O=C(C(F)(F)F)C(F)(F)F (tested in a mixture with another compound)
inactive: dose: 25.0 mg/kg/injection, schedule: Q04DX003 (ip), vehicle: other 100 % of control | dose: 50.0 mg/kg/injection, schedule: Q04DX003 (ip), vehicle: other 95 % of control | dose: 100.0 mg/kg/injection, schedule: Q04DX003 (ip), vehicle: other 94 % of control | dose: 200.0 mg/kg/injection, schedule: Q04DX003 (ip), vehicle: other 92 % of control
